In a melting point compilation (Tetko et al.; mined from patent text by program, amines drawn as free bases though some values may be those of a salt) one finds melting point data, which are given here for 86 compounds.

Bounds are passed on as bounds.

In the case of `Cc1cn([C@H]2CC(N=[N+]=[N-])[C@@H](COC(=O)C(C)(C)CC(=O)N[C@@H](Cc3ccccc3)[C@H](O)C(=O)N3CSC(C)(C)[C@H]3C(=O)NC(C)(C)C)O2)c(=O)[nH]c1=O` (stereo partly specified), the melting point lay in the range of 95 to 97 °C. `O=C1C=C(NNc2ccccc2)CCN1` yielded a melting point of 165 to 168 °C. To `COc1cccc(OC)c1C(=O)P1(=O)Oc2ccccc2-c2ccccc21` (stereo unspecified) belongs 96 to 98 °C. On to `CCCC(=O)c1cnc2c(C=O)cccc2c1Nc1ccccc1C`, for which the melting point fell in the range of 142 to 144 °C. Consider `CCOC(=O)c1c(C)nc(C(C)C)c2nnn(CC)c12`, for which the melting point is 55 to 57 °C. To `CCCCCCCCCCCCn1nnc(C(C(=O)Nc2c(OC)cc(OC)cc2OC)c2ccccc2)n1` (stereo unspecified) belongs 119 to 120 °C. To `CC(C(=O)NCCCC(F)(F)F)(c1ccccc1)c1ccccc1` belongs 82 °C; to `CO[C@@H]1CN(c2ccc3c(=O)c(C=O)cn(-c4nccs4)c3n2)C[C@H]1NCC(=O)OC(C)(C)C` (relative stereo), 130 to 132 °C; to `COC(=O)C[C@@H](CC(=O)/C=C/c1c(-c2ccc(F)cc2)c(-c2ccc(F)cc2)c(C(=O)Nc2cccc(C(=O)N(C)C)c2)n1C(C)C)O[Si](C)(C)C(C)(C)C`, 135 to 137 °C. As for `O=Cc1nn(-c2ccc(Cl)cc2)c2c1CCCC2`, the figure is 117 to 118 °C; as for `CCOC(=O)c1cnn2c(-c3ccncc3)ccnc12`, 209 to 210 °C; as for `CC(C)[C@H](NC(=O)N(C)Cc1csc(NC(=O)OC(C)(C)C)n1)C(=O)N[C@@H](Cc1ccccc1)C[C@H](O)[C@H](Cc1ccccc1)NC(=O)OCc1cccnc1`, 103 to 105 °C.

Take `COC(=O)c1ccccc1-c1ccc(CNc2nc(C(F)(F)F)nc3ccccc23)cc1`: the melting point lay within 135 to 142 °C.

Compound `COc1c2c(cc3ccc(=O)oc13)CC(C)O2` (stereo unspecified) returned a melting point of 115 to 116 °C. Compound `CS(=O)(=O)c1ccc(C2=C(c3ccc(F)cc3)CC(C(F)(F)F)(C(F)(F)F)C2)cc1` yielded a melting point of 138 °C.

Regarding `CN(CCC(Oc1ccc(C(F)(F)F)cc1)c1ccccc1)Cc1ccccc1` (stereo unspecified), the melting point was 42 to 44 °C.

`CCOC(=O)N1Cc2sc3ncn(CCCl)c(=O)c3c2C1`: the melting point fell in the range of 169 to 171 °C. The compound `N#Cc1ccc(-c2nc(S)[nH]c2-c2ccc(Br)cc2)cc1` displayed a melting point of 307 to 311 °C. `CCOC(=O)c1cn(C)c2c(=O)c3cc(Cl)ccc3oc2c1=O` gave a melting point of 295 to 297 °C. With `CC(=O)Nc1cc(N2CCCC2)c2c(Cl)ccc3c2c1C(=O)N(O)C3=O`, the melting point lay within 152 to 154 °C. As for `COC(=O)c1cc(S(=O)(=O)Cl)cc(C(=O)OC)c1[N+](=O)[O-]`, the melting point lay within 124 to 125 °C. As for `Oc1ccc2ccc(OCc3ccccc3)cc2c1`, the figure is 152 to 154 °C. To `CCOC(C#CC(=O)c1cc(OC)c(OC)c(OC)c1)OCC` belongs 52 to 54 °C.

For the compound `CCCO[C@@H]1C[C@@H](C(=O)O)N(C(C)=O)C1`, the melting point was 148 to 153 °C.

Compound `Cc1nnc2n1-c1sc(C#CCN3C(=O)C(=O)c4ccccc43)cc1C(c1ccccc1Cl)=NC2` gave a melting point of 185 to 190 °C. As for `NC(=O)c1cc(C(=O)CN(Cc2ccccc2)Cc2ccccc2)ccc1OCC(O)CO` (stereo unspecified), the figure is 169 to 173 °C; as for `Cn1c(=O)c(N)c(N)n(-c2ccc(Cl)cc2Cl)c1=O`, 170 to 172 °C. As for `NNc1cc2c(nn1)CCN(C(=O)CC(c1ccccc1)c1ccccc1)C2`, the figure is 175 to 178 °C; as for `Cc1ccccc1C(=O)N1CCc2nnc(NN)cc2C1`, 98 to 100 °C; as for `CCOC(=O)c1oc2cccc(CCO)c2c1C`, 88 to 90 °C. `CC(c1ccccc1N1CCCCC1)C(C(N)=O)c1ccc(C(=O)N2CCCCC2)cc1` (stereo unspecified) displayed a melting point of 131 to 133 °C. The compound `CCOC(=O)C1Cc2c(ccc(OC)c2OCc2ccccc2)CN1C(=O)C(c1ccccc1)c1ccccc1` (racemic) gave a melting point of 111 to 113 °C. As for `Clc1ccc2c(C3CCN(CC4Cc5ccccc5C4)CC3)c[nH]c2c1Cl`, the figure is 141 to 142 °C. As for `CC(C)C[C@H](NC(=O)OCc1ccccc1)C(=O)N[C@@H](CC(N)=O)C(=O)NC(Cc1ccccc1)C(O)C(Cc1ccccc1)NC(=O)OC(C)(C)C` (stereo partly specified), the figure is 192 to 194 °C. In turn, `O=C(Nc1nnc(C(F)(F)F)o1)C(c1ccccc1)c1ccccc1` yielded a melting point of 149 to 150 °C. `CC(C)Sc1cc2c3cc(SC(C)C)c(SC(C)C)cc3c3cc(SC(C)C)c(SC(C)C)cc3c2cc1SC(C)C` yielded a melting point of 165 to 168 °C. Consider `OCc1ncc(-c2ccc(Cl)cc2)o1`, for which the melting point was in the range of 100 to 104 °C. To `c1ccc2c(c1)N=C(c1ccncc1)c1cccc3c1N2CC3` belongs 152 to 153 °C; to `CC(C)n1c(=O)c(=O)[nH]c2cccnc21`, 246 to 247 °C. As for `CC(=O)O[C@H]1C[C@@H](n2cc(C)c(=O)[nH]c2=O)[C@H](O)[C@@H]1O` (racemic), the figure is 58 to 61 °C. As for `Cc1ccnc(C(O)c2sc(NC(=N)N)nc2C)c1` (stereo unspecified), the figure is 150 to 152 °C; as for `COCCOCCN1C(=O)C2(COc3cc4c(cc32)OCCO4)c2cc3c(cc21)OCCO3` (stereo unspecified), 146 to 148 °C; as for `CC(C)(C)C(=O)COc1nn(CC=C(Cl)Cl)c(-c2ccc(S(C)(=O)=O)cc2)c1-c1ccc(F)cc1`, 156 to 158 °C. On to `CC(C)(C)C(O)C(C(CC#N)c1ccccc1)n1ccnc1` (stereo unspecified), for which the melting point was 212 to 228 °C. In turn, `CN(c1ccc(OC(F)(F)F)cc1)c1cc(C(F)(F)F)nc(NN=Cc2ccc(OC(F)(F)F)cc2)n1` displayed a melting point of 180 to 182 °C. As for `CC12CCC3=C(CCc4cc(O)ccc43)C1CCC2=O` (stereo unspecified), the figure is 225 to 227 °C; as for `Cc1c(C(=O)c2ccc(Cl)c(S(N)(=O)=O)c2)[nH]c2ccccc12`, 205 °C; as for `Cc1noc(-c2sc(N3CCN(Cc4ccc(C(F)(F)F)cc4)C3=O)nc2C)n1`, 163 to 164 °C. Regarding `C=CC(=O)OCCOc1ccc(C(=O)C(C)(C)OC(=O)C=C)cc1`, the melting point amounted to 71 °C. As for `CC(C)n1cc(C(=O)NCc2ccc(Cl)cc2)c(=O)c2cc(I)sc21`, the figure is 173 to 180 °C; as for `CCCCCCCCCNC1=CC(=O)c2c(OC)ccc(OC)c2C1=O`, 85 to 86 °C; as for `NNC(=O)C1(Cl)CC1(Cl)Cl` (stereo unspecified), 122 to 123 °C.

In the case of `C=CC(=O)N(CCCCCC)C[C@H](O)[C@@H](O)[C@H](O)[C@H](O)CO`, the melting point lay within 86 to 88 °C. As to `OCc1c(CO)c(-c2ccncc2)n2c1CCC2`, the melting point was 173 to 175 °C. To `COc1ccccc1CN[C@H]1CCCN[C@H]1Cc1ccccc1` (relative stereo) belongs over 241 °C; to `COc1cc2[nH]cc(C3CN4CCC3CC4)c2cc1OC` (stereo unspecified), 243 to 245 °C; to `O=c1ccn([C@H]2C=C[C@@H](O)C2)cc1` (racemic), 188 to 189 °C. Compound `Fc1cccc(Cl)c1C1C=C(c2ccc(Cl)cc2)Nc2ncnn21` (stereo unspecified) had a melting point of 213 to 215 °C. Turning to `CC(C)(C)OC(=O)N1CCc2c(Br)cccc2C1`, the melting point fell in the range of 75.6 to 80.4 °C. As for `O=[N+]([O-])c1ccc(Oc2ccc(C(F)(F)F)cc2Cl)cc1CCl`, the figure is 55 to 60 °C; as for `COc1cc2c(Nc3ccc(Sc4nccn4C)c(Cl)c3)c(C#N)cnc2cc1-c1ccc(CN2CCOCC2)cc1`, 260 to 262 °C. For `O=S(=O)(Oc1ccccc1)c1ccc(O)cc1`, the melting point fell in the range of 114 to 116 °C. To `COC(=N)Nc1nc(Cl)cc(OC)n1` belongs 118 to 120 °C. `CC1(C)OC(=O)C(C)(N=Nc2ccc(F)cc2Br)C(=O)O1` yielded a melting point of 92 to 93 °C.

Take `N=S1C(n2c(S)nnc2-c2ccc(O)cc2)=CC=C1[N+](=O)[O-]` (stereo unspecified): the melting point was in the range of 275 to 276 °C.

`CC(=NO)c1cccc(N)c1` gave a melting point of 133 °C. With `COc1ccc2c(N(C)CCc3ccccn3)noc2c1`, the melting point was in the range of 152 to 153 °C. As for `NC(=O)c1ccc2nc3c(c(=O)n2c1)CCC3=Cc1ccccc1`, the figure is 350 to 357 °C; as for `CCC(=O)Oc1cc(OC)cc(OC)c1C(=O)C=Cc1cccs1`, 127 °C; as for `O=c1c(Br)c(OCc2ccc(Cl)cc2)cnn1-c1ccc(Cl)cc1`, 168 to 175 °C. The compound `Cc1c(Cl)nn(C(C)(C)C(=O)N(C)C)c1-c1ccccc1` had a melting point of 134 to 136 °C. As for `Cc1ccc2c(c1)CC(=O)c1cc(C(C)C(=O)O)ccc1O2` (stereo unspecified), the figure is 128 to 129 °C; as for `COC(=O)CNc1cc(CS(=O)(=O)C=Cc2c(OC)cc(OC)cc2OC)ccc1OC`, 182 to 185 °C. As for `CS(=O)(=O)c1ccc(-n2cncc2-c2cnc(Cl)c(Cl)c2)cc1`, the figure is 192 to 198 °C; as for `N#Cc1ccccc1S(=O)(=O)N1CCCC1c1ccc(F)cc1` (racemic), 101 °C. Compound `Cc1cc(-c2nc3ccccc3c(=O)n2-c2ccc(Br)cc2)ccc1OCCO` yielded a melting point of 92 to 93 °C. To `O=C(O)COc1cc(F)c(Br)cc1C(=O)NCc1cccc([N+](=O)[O-])c1` belongs 169 to 172 °C.

`CC(=O)Nc1cc(C(F)(F)F)ccc1SCC#N` showed a melting point of 103 °C. On to `S=C(Nc1ccccc1Br)c1ccccc1`, for which the melting point was in the range of 157 to 158 °C. Consider `O=C(O)C1C2CCC(C2)C1C(F)(F)F` (stereo unspecified), for which the melting point is 87 to 90 °C.

`Nc1nc2ccccc2c2c1nc1n2OCC1` showed a melting point of over 300 °C.

`Cc1cc(C)c(C(=O)Nc2ccccc2S(C)=O)c(I)c1` (stereo unspecified): the melting point was determined as 114 °C.

On to `N#Cc1nc2cc(O)ccc2s1`, for which the melting point is 194 °C.

`COc1cccc2c(=O)nc(-c3ccccn3)sc12`: the melting point came to 191 °C. To `S=C(NCc1ccc(Cl)cc1Cl)N1CCc2c([nH]c3ccccc23)C1c1ccc2c(c1)OCO2` (stereo unspecified) belongs 124 to 127 °C. As for `Cc1cc(C)n(-c2nc(NC3Cc4ccccc4C3)cc(N3CCOCC3)n2)n1`, the figure is 66 to 70 °C.
